Assay results: PubChem BioAssay (NCI)
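96-well plates; 48 h exposure; 5 concentrations. Endpoints by linear interpolation between flanking doses. Not reached: highest tested concentration assigned. TGI is the concentration that stops growth completely.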

Experiments:
Assay in all cases: NCI-60 cell line screen, 48 h
COLO 205 colon = test system: COLO 205 colon
HT29 colon = test system: HT29 colon
K-562 leukemia = test system: K-562 leukemia
M14 melanoma = test system: M14 melanoma
MALME-3M melanoma = test system: MALME-3M melanoma
NCI-H23 lung = test system: NCI-H23 lung
OVCAR-8 ovarian = test system: OVCAR-8 ovarian
SNB-75 CNS = test system: SNB-75 CNS
SW-620 colon = test system: SW-620 colon
UACC-62 melanoma = test system: UACC-62 melanoma
CAKI-1 renal = test system: CAKI-1 renal
EKVX NSCLC = test system: EKVX NSCLC
SK-MEL-2 melanoma = test system: SK-MEL-2 melanoma

Row | Structure (SMILES) | TGI (COLO 205 colon) [µM] | TGI (HT29 colon) [µM] | TGI (K-562 leukemia) [µM] | TGI (M14 melanoma) [µM] | TGI (MALME-3M melanoma) [µM] | TGI (NCI-H23 lung) [µM] | TGI (OVCAR-8 ovarian) [µM] | TGI (SNB-75 CNS) [µM] | TGI (SW-620 colon) [µM] | TGI (UACC-62 melanoma) [µM] | TGI (CAKI-1 renal) [µM] | TGI (EKVX NSCLC) [µM] | TGI (SK-MEL-2 melanoma) [µM]
1 | CN(c1cn(C2CC[C@@H](CO)O2)c(=O)[nH]c1=O)C1CCCCC1 (some centres not stated) | > 100 | > 100 | > 100 | > 100 | > 100 | > 100 | > 100 | > 100 | > 100 | > 100 |  |  | 
2 | Brc1ccc2c(c1)-c1nc3nc4c(cc3cc1CC2)CCc1ccc(Br)cc1-4 | > 100 |  | > 100 | > 100 | > 100 | > 100 | > 100 | > 100 | > 100 |  | > 100 | > 100 | > 100
3 | COC(=O)C(C/C=C(\C)c1ccc(Cl)cc1)C(C)=O (configuration not stated) | > 100 | > 77.1 | > 100 |  | > 100 | > 100 | > 100 | > 94.6 | > 100 | > 100 |  | > 100 | 32.9
4 | CSC12c3cc(C)n(-c4ccccc4)c3CC(C)(C)CN1C(=O)C2Oc1ccccc1 (configuration not stated) | > 100 |  | > 100 | > 100 |  | > 100 | > 100 | > 100 | > 100 | > 100 | > 100 | > 100 | > 100
5 | COc1cccc(NC(=O)C(=O)C(C(=O)c2ccccc2F)C2OC(=O)c3ccccc32)c1 (configuration not stated) | 39.5 | > 100 | > 100 | > 100 |  | 98.1 | 60.9 | 70.9 | > 100 | > 100 | > 100 | > 100 | 75.2
6 | Cc1cc(S(=O)(=O)/N=C(/[N-]S(=O)(=O)c2ccc(Cl)cc2)[n+]2ccc(N(C)C)cc2)c(SCC(=O)O)cc1Cl | > 100 | > 100 | > 100 | > 100 | > 100 | > 100 | > 100 | > 100 | > 100 | > 100 | > 100 | > 100 | 
7 | COC(=O)C1(C(=O)OC)N=C(C)OC1/C=C/c1ccccc1 (configuration not stated) | > 100 |  | > 100 | > 100 |  | > 100 | > 100 | > 100 | > 100 | > 100 | > 100 | > 100 | > 100
8 | O=C(O)CCCc1ccc2ccccc2c1 | > 100 | > 100 | > 100 | > 100 |  | > 100 | > 100 |  | > 100 | > 100 | > 100 | > 100 | > 100
9 | CCOC1Oc2ccccc2-c2nc(SC)ncc21 (configuration not stated) | > 100 | > 100 |  | > 100 |  | > 100 | > 100 | > 100 | > 100 | > 100 | > 100 | > 100 | > 100
10 | O=C(c1ccc(Cl)cc1)N(C(=S)OCc1ccccn1)c1ccccc1 | > 100 | > 100 | > 100 | > 100 | > 100 | > 100 | > 100 |  | > 100 | > 100 | > 100 | 84.4 | > 100
11 | COC1(O)c2cccc(Cl)c2C(=O)N1C1(C(N)=O)CCCCC1 (configuration not stated) | > 100 | > 58 | > 100 |  | > 100 | > 53.1 | > 100 | > 100 | > 100 | > 100 | > 100 | > 100 | > 100
12 | CC(C)(CCCCC(C)(C)[N+](C)(C)C)[N+](C)(C)C | > 100 | > 100 | > 100 | > 100 |  |  | > 100 | > 100 | > 100 |  |  | > 100 | 
13 | COc1ccccc1/C=C1\NC(=S)N(/C=C2\C(=O)Oc3ccccc3C2=O)C1=O | > 100 | > 100 |  | > 100 |  | > 100 | > 100 | > 100 | > 100 | > 100 | > 100 | > 100 | > 100
14 | O=C1CC(=O)NC(=NNS(=O)(=O)c2ccccc2)N1 | > 100 | > 100 | > 100 | > 100 | > 100 | > 100 | > 100 | > 100 | > 100 | > 100 | > 100 |  | > 100
15 | C=CCOC(=O)C1=C(CCC[C@@H](C)O[Si](C)(C)C(C)(C)C)N=C(N)N2[C@H](CCO)CC[C@@H]12 | 22.9 |  | 21.5 | 27.6 | 34.9 | 32.4 |  | 32.5 |  | 33 | 26.1 |  | 30.3
16 | COC(=O)[C@H](Cc1ccc(OC(C)(C)C)cc1)N[C@H](C)C(=O)N[C@@H](Cc1ccccc1)C(=O)OCc1ccccc1 | > 100 | > 100 | 63.5 | > 100 | > 100 | > 100 | > 100 | > 100 | > 100 | > 100 | > 100 | > 100 | 
17 | COc1ccc(C2C3CCc4ccccc4C3=NN2S(=O)(=O)c2ccc(/C=C/C(=O)O)cc2)cc1 (configuration not stated) | 7.43 | 13.6 | 15.7 | > 100 | 23.1 | 1.87 | 92.5 |  | > 100 | 23.8 | > 100 | > 100 | 9.79
18 | O=C(CSc1nc2ccc(I)cc2c(=O)n1Cc1ccccc1)NNC(=O)c1ccccc1 | > 100 | > 100 | 15.5 | > 100 |  | 68.8 | 20.7 | 10.3 | > 100 | > 100 | 12.3 | 17.9 | 19.2
19 | Cc1nnc(N)nc1/C=C/c1c(O)ccc2ccccc12 | > 100 | 87.7 | > 100 | 44.1 |  | > 100 | > 100 |  | > 100 | 85 | > 100 | 36 | 35.5
20 | O=C(CNC(c1ccccc1)(c1ccccc1)c1ccccc1)NC1CCCCC1NC(=O)CNC(c1ccccc1)(c1ccccc1)c1ccccc1 (configuration not stated) | > 100 | > 100 | > 100 |  | > 100 | > 100 | > 100 |  | > 100 | > 100 | > 100 | 47.6 | > 100
